Results published in patent US5229123A, “Antifungal agents” (Hoffmann-La Roche Inc., priority 1991, dated 1993).
pIC50: −log10 of the molar value. Like-named read-outs stand apart in the source and are kept apart here.

Tests used:
[1] = Solubility (physico-chemical properties); assay type: physicochemical
From the text: The physico-chemical properties of Xanthofulvin obtained as described in the Example given hereinbelow are as follows: […]

Acute toxicity = conditions: in vivo
Chs 1 = molecular target: T1, Chs 1 (Saccharomyces cerevisiae, UniProt P08004); experiment: Inhibitory activity against Chs 1 (chitin formation from [14C]-UDP-N-acetylglucosamine in permeabilized overproducer cells); assay type: biochemical
T1 sequence (P08004 1-1131): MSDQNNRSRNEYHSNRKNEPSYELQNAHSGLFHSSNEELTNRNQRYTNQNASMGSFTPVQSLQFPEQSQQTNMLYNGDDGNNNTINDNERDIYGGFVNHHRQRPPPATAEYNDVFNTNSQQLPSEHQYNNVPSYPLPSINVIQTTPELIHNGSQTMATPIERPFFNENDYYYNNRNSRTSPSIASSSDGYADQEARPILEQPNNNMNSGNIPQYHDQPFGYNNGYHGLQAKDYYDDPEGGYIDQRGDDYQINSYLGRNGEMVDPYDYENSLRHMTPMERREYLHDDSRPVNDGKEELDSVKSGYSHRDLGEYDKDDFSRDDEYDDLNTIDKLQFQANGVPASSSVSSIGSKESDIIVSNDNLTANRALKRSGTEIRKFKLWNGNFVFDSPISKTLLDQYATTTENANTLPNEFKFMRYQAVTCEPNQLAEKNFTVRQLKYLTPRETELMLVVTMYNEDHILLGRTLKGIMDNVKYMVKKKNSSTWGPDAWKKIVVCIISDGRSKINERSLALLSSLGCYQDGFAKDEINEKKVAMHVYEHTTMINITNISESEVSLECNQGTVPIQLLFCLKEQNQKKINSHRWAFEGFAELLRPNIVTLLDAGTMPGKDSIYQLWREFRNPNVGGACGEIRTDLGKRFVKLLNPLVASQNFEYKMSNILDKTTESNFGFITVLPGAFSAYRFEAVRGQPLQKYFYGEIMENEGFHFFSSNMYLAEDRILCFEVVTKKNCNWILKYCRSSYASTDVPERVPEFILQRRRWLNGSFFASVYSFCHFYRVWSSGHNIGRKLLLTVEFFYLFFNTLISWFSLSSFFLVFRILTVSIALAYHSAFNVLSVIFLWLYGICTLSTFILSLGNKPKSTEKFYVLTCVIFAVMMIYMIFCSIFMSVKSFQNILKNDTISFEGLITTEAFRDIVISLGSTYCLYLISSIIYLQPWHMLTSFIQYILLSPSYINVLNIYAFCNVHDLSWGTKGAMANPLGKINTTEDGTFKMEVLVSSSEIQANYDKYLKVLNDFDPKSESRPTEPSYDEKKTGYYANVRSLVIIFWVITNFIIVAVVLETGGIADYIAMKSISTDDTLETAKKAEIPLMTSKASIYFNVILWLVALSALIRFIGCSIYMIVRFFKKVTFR
Description: (§1) Inhibitory activity of Xanthofulvin against Chs 1 and Chs 2 from Saccharomyces cerevisiae was measured respectively.
(§2) The overproducer employed for Chs 1 was Saccharomyces cerevisiae (ura3) harbouring plasmid (CHSl, URA3). The cells were permeabilized with 0.5% digitonin for 15 min at 30° C., followed by treatment with trypsin at the final concentration of 100 μg/ml for 15 min at 30° C. After addition of trypsin inhibitor from soybean, 50 μl of 2.5×10^7 cells/ml was incubated for 1 hr at 30° C. with 40 μl of assay solution containing 50 mM MES pH 6.5, 5 mM Mg(OAc)2, 32 mM N-acetylglucosamine and 0.1 mM [^14 C]-UDP-N-acetylglucosamine, and 10 μl of sample solution. Reaction was terminated with addition of TCA and cells are collected on the filter and washed with 70% aqueous ethanol containing 0.3M acetic acid. Radioactivity of cells is counted with a liquid scientillation counter. Amount of chitin formed was determined on the basis of radioactivity incorporated into the cells (S. J. Silverman, A. Sburlati, M. J. Slater and E. Cabib. Proc. Natl. Acad. Sci. USA, 85, 4735-4739 (1988)).

Chs 2 = molecular target: T2, Chs 2 (Saccharomyces cerevisiae, UniProt P14180); experiment: Inhibitory activity against Chs 2 (chitin formation from [14C]-UDP-N-acetylglucosamine in permeabilized overproducer cells); assay type: biochemical
T2 construct: digitonin-permeabilized, trypsin-treated cells
Description: as §1, §2
Overproducer for Chs 2 was a Saccharomyces cerevisiae strain of disrupted Chs 1 gene (chs1:: URA3, leu2 ) with plasmid (CHS2, LEU2). Assay method was the same as the one for Chs 1 described above except for assay solution. Assay solution for Chs 2 contained 30 mM Tris (pH 7.5), 2.5 mM Co(OAc)2, 32 mM N-acetylglucosamine and 0.1 mM [^14 C]-UDP-N-acetylglucosamine (See: Silverman et al. supra).

[2] = molecular target: chitin synthase 1 (Chs 1) (Saccharomyces cerevisiae, UniProt P08004); conditions: literature, E. Cabib 1991; cited from earlier work

T2 sequence (P14180 whole entry): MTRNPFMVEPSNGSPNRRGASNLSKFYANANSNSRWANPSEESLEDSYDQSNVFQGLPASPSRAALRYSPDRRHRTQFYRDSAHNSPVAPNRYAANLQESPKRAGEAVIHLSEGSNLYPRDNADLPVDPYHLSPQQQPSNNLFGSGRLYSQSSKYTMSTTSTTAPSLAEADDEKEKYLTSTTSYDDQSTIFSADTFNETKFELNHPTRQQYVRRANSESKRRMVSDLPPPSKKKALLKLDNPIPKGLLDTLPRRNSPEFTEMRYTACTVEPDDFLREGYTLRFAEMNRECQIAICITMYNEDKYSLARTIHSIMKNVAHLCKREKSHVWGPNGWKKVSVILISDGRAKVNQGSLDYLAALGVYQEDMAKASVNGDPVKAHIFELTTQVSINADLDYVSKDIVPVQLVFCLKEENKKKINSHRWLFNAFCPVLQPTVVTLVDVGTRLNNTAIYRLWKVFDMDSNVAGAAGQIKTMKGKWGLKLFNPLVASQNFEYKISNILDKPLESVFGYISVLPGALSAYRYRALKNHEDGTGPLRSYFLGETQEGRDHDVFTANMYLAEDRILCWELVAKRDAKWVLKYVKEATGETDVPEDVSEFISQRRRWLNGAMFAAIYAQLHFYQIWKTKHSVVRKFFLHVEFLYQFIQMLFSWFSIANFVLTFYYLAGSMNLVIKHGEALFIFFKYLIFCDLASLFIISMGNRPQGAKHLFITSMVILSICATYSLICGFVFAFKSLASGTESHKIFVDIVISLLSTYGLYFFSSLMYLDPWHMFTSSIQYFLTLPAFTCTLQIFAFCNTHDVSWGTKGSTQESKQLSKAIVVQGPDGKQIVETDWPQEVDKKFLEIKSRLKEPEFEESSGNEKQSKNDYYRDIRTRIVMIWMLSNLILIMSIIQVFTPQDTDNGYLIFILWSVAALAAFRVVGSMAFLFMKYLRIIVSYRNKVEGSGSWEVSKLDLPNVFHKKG

CC(=O)c1c(C)c(/C(O)=C2\COc3cc(O)c(O)c(C(=O)O)c3C2=O)cc2c(=O)c3c(C(=O)O)c(O)c(O)cc3oc12 [Xanthofulvin]
Solubility ([1]; in DMSO): Soluble
Solubility ([1]; in H2O): Slightly soluble
Solubility ([1]; in MeOH): Soluble
Solubility ([1]; in n-hexane): Insoluble
Acute toxicity (Acute toxicity): not observed
pIC50 (Chs 1; Chs 1 overproducer, MES pH 6.5, Mg(OAc)2, 1 hr at 30° C., read-out: IC50 Chs 1): < 3.70
pIC50 (Chs 2; Chs 2 overproducer, Tris pH 7.5, Co(OAc)2, read-out: IC50 Chs 2): 5.66
Chs 2 inhibiting activity (in words) (Chs 2; summary of Table 1): high Chs 2 inhibiting activity

C[C@@H]([C@H](N)C(=O)N[C@H](C(=O)O)[C@H]1OC(n2cc(C=O)nc2O)[C@H](O)[C@@H]1O)[C@H](O)c1ccc(O)cn1 (stereo partly drawn) [nikkomycin X]
Inhibition of chitin synthase 1 versus Chs 2 (in words) [2]: inhibit chitin synthase 1 (Chs 1) rather than Chs 2

NC(=O)OC[C@H](O)[C@@H](O)[C@H](N)C(=O)N[C@H](C(=O)O)[C@H]1O[C@@H](n2cc(C(=O)O)c(=O)[nH]c2=O)[C@H](O)[C@@H]1O [polyoxin D, reference compound]
pIC50 (Chs 1): 6.59
Inhibition of chitin synthase 1 versus Chs 2 (in words) [2]: inhibit chitin synthase 1 (Chs 1) rather than Chs 2
pIC50 (Chs 2): 4.99
